From paper PMC6152192, “Novel Methylselenoesters as Antiproliferative Agents” (Molecules : A Journal of Synthetic Chemistry and Natural …, 2017)
“And” between values parts separate entries of the source, which are not always exact repeats. Identical values can stand only once.

How the values were obtained:
[1] = system: PC-3 (prostate adenocarcinoma); test: MTT viability assay, PC-3; type: cell-based; conditions: PC-3, 72 h, MTT; for CC50: read-out: LC50 (the source's name)
Experimental: (§1) The novel compounds were tested against a panel of different cancer lines: PC-3 (prostate adenocarcinoma), MCF7 (mammary adenocarcinoma), HTB-54 (lung carcinoma), K-562 (chronic myelogenous leukemia) and HT-29 (colorectal adenocarcinoma). Two non-malignant cell lines, BEAS-2B (bronchial epithelial) and 184B5 (mammary epithelial) were also included to evaluate the toxicity of the novel synthesized compounds. The antiproliferative activity was measured with the [3-(4,5-dimethylthiazol-2-yl)-2,5-diphenyltetrazolium bromide] (MTT) assay after 72 h treatment. Six concentrations ranging from 0.1 to 100 μM were tested. MSA is largely known as the main CH3SeH putative precursor and was therefore included as positive control. The following parameters were calculated: GI50 (concentration which reduces the growth by 50%), TGI (concentration completely inhibiting growth) and LC50 (concentration that kills 50% of the cells).
(§2) All cells were purchased from the American Type Culture Collection (ATCC, Barcelona, Spain). HT-29 (colorectal adenocarcinoma), HTB-54 (grade III lung carcinoma), MCF7 (mammary adenocarcinoma), PC-3 (grade IV prostate adenocarcinoma) and K-562 (chronic myelogenous leukemia) were cultured in RPMI (Gibco, Madrid, Spain), 10% FBS (Gibco), 100 units/mL penicillin and 100 μg/mL streptomycin (Gibco). BEAS-2B cell line (normal epithelial lung) was cultured in DMEM (Gibco), 10% FBS, 100 units/mL penicillin and 100 μg/mL streptomycin. 184B5 (normal mammary gland) cell line was cultured in DMEM:F12 supplemented with 5% FBS, 1 × ITS (Lonza, Barcelona, Spain), 100 nM hydrocortisone (Sigma-Aldrich), 2 mM sodium pyruvate (Lonza), 20 ng/mL EGF (Sigma-Aldrich), 0.3 nM trans-retinoic acid (Sigma-Aldrich), 100 units/mL penicillin and 100 µg/mL streptomycin. Cells were cultured at 37 °C under 5% CO2.
(§3) Cell viability after treatment was assessed by the well-known 3-(4,5-dimethyl-thiazol-2-yl)-2,5-diphenyltetrazolium bromide (MTT, Sigma-Aldrich) assay. Briefly, 10,000 cells were seeded in 96-well plates, treated and incubated for 72 h. Dilutions of the compounds in cell medium were freshly prepared from a 0.01 M stock in DMSO. After treatment, 50 μL of MTT solution in PBS (2 mg/mL) were added and cells were incubated for 4 h. Medium was removed and 150 μL of DMSO was added to dissolve the formed formazan crystals. Absorbance was read at 550 nm in a microplate absorbance reader (Sunrise, Tecan, Männedorf, Switzerland).

[2] = system: MCF7 (mammary adenocarcinoma); test: MTT viability assay, MCF7; type: cell-based; conditions: MCF7, 72 h, MTT; for CC50: read-out: LC50 (the source's name)
Experimental: as §1, §2, §3

[3] = system: 184B5 (non-malignant mammary epithelium); test: MTT viability assay, 184B5; type: cell-based; conditions: 184B5 non-malignant, 72 h, MTT; for CC50: read-out: LC50 (the source's name)
Experimental: as §1, §2, §3

[4] = system: K-562 (chronic myelogenous leukemia); test: MTT viability assay, K-562; type: cell-based; conditions: K-562, 72 h, MTT; for CC50: read-out: LC50 (the source's name)
Experimental: as §1, §2, §3

[5] = system: HT-29 (colorectal adenocarcinoma); test: MTT viability assay, HT-29; type: cell-based; conditions: HT-29, 72 h, MTT; for CC50: read-out: LC50 (the source's name)
Experimental: as §1, §2, §3

HTB-54 (lung carcinoma) = test: MTT viability assay, HTB-54; type: cell-based; conditions: HTB-54, 72 h, MTT; for CC50: read-out: LC50 (the source's name)
Experimental: as §1, §2, §3

[6] = system: BEAS-2B (non-malignant bronchial epithelial); test: MTT viability assay, BEAS-2B; type: cell-based; conditions: BEAS-2B non-malignant, 72 h, MTT; for CC50: read-out: LC50 (the source's name)
Experimental: as §1, §2, §3

[7] = Methylselenol (CH3SeH) release by hydrolysis, quantified with DTNB (Ellman's reagent); type: physicochemical; conditions: 100 μM compound, 100 μM DTNB, 100 mM phosphate buffer, 1 mM EDTA, pH 8, followed over 72 h
Description: The new compounds were designed as CH3SeH precursors. The chemical features of the selenoester functional group facilitate a nucleophilic attack (i.e., with water) which would deliver the CH3SeH residue. In order to verify if CH3SeH could be released from the molecules by hydrolysis and if the rate differed among the compounds, the reaction of CH3SeH with 5,5′-dithiobis(2-nitrobenzoic acid) (DTNB or Ellman’s reagent) in aqueous environment was monitored. Briefly, when the disulfide bridge of DTNB reacts with thiols or selenols, 2-nitro-5-thiobenzoate (TNB^2−) is released and the mixed disulfide or selenylsulfide is formed. Each released CH3SeH produces one yellow TNB^2− species, whose absorbance can be quantified at 412 nm (Figure 2A).
A stock solution of the compounds was prepared in anhydrous DMSO (10 mM). The compounds were placed in a 96-well plate in a final concentration of 100 μM. Reaction started after adding 200 μL of an aqueous 100 mM Na2HPO4 buffer (1 mM EDTA, pH = 8), containing 100 μM of DTNB from a freshly prepared 10 mM ethanolic stock, which were added just before starting the reaction. The DTNB concentration was quantified with a cysteine standard curve ([…]). Blanks for the compounds in the absence of DTNB were also included as well as a blank to measure the slow but spontaneous hydrolysis of DTNB, which was further subtracted from all the values. Absorbance was read at 412 nm in a FLUOstar Omega microplate reader (BMG LabTech, Ortenberg, Germany). Results represent means of triplicate values ± SD.
Figure 2 CH3SeH release rates are dependent on the chemical features of the molecule. Released CH3SeH was quantified through reaction with Ellman’s reagent (DTNB). (A) Proposed reaction between CH3SeH and DTNB; (B) Quantification of TNB^2− at different times. The compounds were tested at 100 μM in 200 μL of 100 mM phosphate buffer (1 mM EDTA, pH = 8). DTNB concentration was also 100 μM. Absorbance was followed at 412 nm over 72 h. A cysteine standard curve (7.5–150 μM) was used to calculate the concentration of TNB^2− over time. Compounds showing less than 15% hydrolysis at 72 h are not included, except for compound 5 as example. Error bars indicate SD of triplicates.

Row | Substance | GI50 [1] | TGI [1] [µM] | CC50 [1] [µM] | GI50 [2] [µM] | TGI [2] [µM] | CC50 [2] [µM] | GI50 [3] [µM] | TGI [3] [µM] | CC50 [3] [µM] | GI50 [4] [µM] | TGI [4] [µM] | CC50 [4] [µM] | GI50 [5] [µM] | TGI [5] [µM] | CC50 [5] [µM] | GI50 (HTB-54 (lung carcinoma)) | TGI (HTB-54 (lung carcinoma)) [µM] | GI50 [6] [µM] | TGI [6] [µM] | CC50 [6] [µM] | further results
1 | Methyl 2-thiophencarboselenoate [Compound 4] | 5.2 ± 0.9 µM | 19.4 ± 3.6 | 62 ± 4.9 | 5.3 ± 1.4 | 22.8 ± 3.8 | 89.6 ± 4.1 | 3.6 ± 0.8 | 7.2 ± 1.4 | 27.9 ± 4.6 | 40.6 ± 4.5 | 74.6 ± 4.9 | > 100 | 3.4 ± 0.2 | 7.2 ± 1.2 | 47.5 ± 3.2 | 8.5 ± 3.1 µM | 39.0 ± 3.1 | 2.9 ± 0.3 | 5.8 ± 0.7 | 8.7 ± 2.1 | CC50 (HTB-54 (lung carcinoma)): 73.9 ± 4.1 µM
2 | Methyl 3-quinolinecarboselenoate [Compound 9] | 5.9 ± 0.5 µM | 10.0 ± 1.9 | 84.1 ± 8.9 | 4.4 ± 0.8 | 8.1 ± 1.2 | 48 ± 7.5 | 3.7 ± 0.5 | 6.2 ± 0.4 | 8.6 ± 0.4 | 39.5 ± 3.1 | 72.6 ± 4.1 | > 100 | 3.4 ± 0.2 | 7.0 ± 0.2 | 37.2 ± 5 | 7.8 ± 1.2 µM | 33.0 ± 4.5 | 4.1 ± 1 | 7.1 ± 4.5 | 15.3 ± 9.1 | CH3SeH release / hydrolysis rate [7]: more sustained release; CC50 (HTB-54 (lung carcinoma)): 69.2 ± 2.7 µM
3 | Methyl 4-methoxybenzoselenoate [Compound 2] | 7.3 ± 1.7 µM | 45.1 ± 4.5 | > 100 | 4.1 ± 0.8 | 9.3 ± 4.1 | 74.8 ± 4 | 3.7 ± 0.8 | 6.4 ± 1.5 | 9 ± 2.1 | 40.8 ± 4.8 | 70.6 ± 5.9 | > 100 | 4.1 ± 0.1 | 7.5 ± 1.1 | 50 ± 2.4 | 6.8 ± 1.7 µM | 29.7 ± 4.3 | 3.2 ± 0.5 | 5.8 ± 0.6 | 8.4 ± 1 | CC50 (HTB-54 (lung carcinoma)): 70 ± 2.9 µM
4 | Methyl 9-acridinecarboselenoate [Compound 13] |  | >100 | > 100 | 4.2 ± 1.8 | 35.4 ± 4.7 | 83.4 ± 4.1 | 6.6 ± 1.2 | 26.8 ± 1.0 | 65 ± 4.5 |  |  |  | 6 ± 0.5 | 16.5 ± 1.9 | 66.6 ± 0.1 |  |  | 3.8 ± 0.1 | 6.4 ± 0.2 | 8.9 ± 0.4 | 
5 | Methyl benzo[b]thiophene-2-carboselenoate [Compound 7] | > 10 µM and 18.4 µM | 47.8 ± 3.9 | 77.3 ± 4.5 | 6.9 ± 1.4 | 61.6 ± 4.1 | > 100 | 3.9 ± 1.2 | 6.9 ± 1.7 | 9.9 ± 0.8 | 29.2 ± 4.4 | 58.8 ± 1.5 | 88.3 ± 3.3 | 3.7 ± 0.2 | 7.4 ± 0.9 | 41.8 ± 4.5 | > 10 µM and 17.5 µM | 55.4 ± 4.4 | 3.9 ± 0.6 | 6.8 ± 0.8 | 9.8 ± 1.1 | CC50 (HTB-54 (lung carcinoma)): 93.4 ± 4.8 µM
